In patent publication US12121521B2, “Uses of salt-inducible kinase (SIK) inhibitors for treating osteoporosis” (The General Hospital Corporation, priority 2016, dated 2024):

What was measured:
[1] = tested on: Ocy454 cells; assay: Gene expression in Ocy454 cells by RT-qPCR; assay type: cell-based, mouse; settings: 0.5 μM, 3.5 hours; FIG. 21
Description: In FIG. 21, Ocy454 cells (osteocyte cell line, also known at 6-9 cells) were cultured at 37° C. for 2 weeks to permit osteocyte differentiation. The cells were then treated with the indicated compound (0.5 μM) for 3.5 hours, and gene expression was analyzed by RT-qPCR. SOST expression was reduced by the indicated compounds. RANKL expression was increased by the indicated compounds. […] Therefore, these changes in gene expression may be due to on-target effects of the indicated compound.
For all experiments, a single cell subclone of Ocy454 cells (17, 18) was used. Cells were passages in alpha-MEM supplemented with 10% heat-inactivated fetal bovine serum and 1% antibiotics (penicillin/streptomycin, Fungizone) at 33° C. with 5% CO2. Cells were plated at 50,000 cells/ml and allowed to reach confluency at 33° C. (typically in 2-3 days). At this point, cells were transferred to 37° C. for subsequent analysis. For immunoblotting, cells were always analyzed after culture at 37° C. for 7 days. For gene expression analysis, cells were analyzed after culture at 37° C. for 14 days. Mycoplasma contamination was ruled out by PCR. Cells were routinely assayed for SOST expression at 37° C. and examined for osteocytic morphology.
Total RNA was extracted from cultured cells using RNeasy (Qiagen, Venlo, Netherlands) following the manufacturer's instructions. For long bone RNA isolation, mice were sacrificed and both femurs were rapidly dissected on ice. Soft tissue was removed and epiphyses cut. Bone marrow cells were then removed by serial flushing with ice-cold PBS. TRIzol (Life Technologies) was added and sampled were frozen at −80C and then homogenized. RNA was then extracted per the manufacturer's instructions, and further purified on RNeasy microcolumns prior to cDNA synthesis. RNA with A260/280 ratio <1.7 was not used for downstream analysis. For cDNA synthesis, 1 μg RNA was used in synthesis reactions according to the instructions of the manufacturer (Primescript RT, Takara). SYBR Green-based qPCR detection was performed using FastStart Universal SYBR Green (Roche, Basel, Switzerland) on a StepOne Plus (Applied Biosystems, Carlsbad, CA) thermocycler.

[2] = tested on: C57B/6 mice; assay: Acute YKL-05-093 administration: bone gene expression and sclerostin immunohistochemistry; assay type: in vivo, mouse; settings: 2 hours
Description: FIGS. 7A to 7I: Effects of YKL-05-093 administration on bone gene expression in vivo. (FIGS. 7A and 7B) 8 week old C57B/6 mice (n=4/group) were treated with the indicated dose of YKL-05-093 via intraperitoneal injection. 2 hours later, bone RNA was isolated and transcript abundance was measured by RT-qPCR. # indicates p<0.05 versus vehicle, and * indicates p<0.01 versus vehicle by Student's unpaired 2 tailed t-test. (FIG. 7C) Left: sclerostin immunohistochemistry was performed 2 hours after intraperitoneal injection with either vehicle or YKL-05-093 (20 μmol/kg). Right: quantification of sclerostin-positive cortical osteocytes, n=4 mice per treatment group, * indicated p<0.01 versus vehicle. (FIGS. 7D to 7I) Genes regulated by PTH and YKL-05-093 in vitro are also regulated by YKL-05-093 in vivo. Mice were treated with YKL-05-093 (20 μmol/kg) and bone RNA collected 2 hours later as in FIG. 7A. * indicates p<0.05 versus vehicle. In FIGS. 7A, 7B, and 7D to 7I, “umol” denotes μmol. In FIGS. 7D to 7I, each of the right bars corresponds to YKL-05-093.
All animals were housed in the Center for Comparative Medicine at the Massachusetts General Hospital, and all experiments were approved by the hospital's Subcommittee on Research Animal Care. HDAC5-null mice (70) and HDAC4 f/f mice (71) were generously provided by Dr. Eric Olson (University of Texas Southwestern Medical Center, Dallas, TX) and were backcrossed to C57B/6 mice for at least 6 generations. DMP1-Cre mice (27) were generously provided by Dr. Jian (Jerry) Feng (Texas A&M University, Baylor College of Dentistry, Dallas, TX). “DKO” HDAC4/5 mice were of the following genotype: HDAC4f/f; HDAC5−/−; DMP1-Cre. SIK2 f/f mice were as described (40), and were bred to DMP1-Cre animals to generate SIK2^OcyKO mice. ES cells carrying the targeted SOST allele Sost^tm1(KOMP)Vleg, in which the SOST coding sequence has been replaced by LacZ and floxed Neo cassette, were obtained from the Knockout Mouse Project (KOMP) Repository. Clone VG10069-BE8 was injected into blastocysts, and the resulting SOST+/− mice were crossed to HDAC5 mutant animals to generate compound heterozygous mice. In all instances, skeletal phenotypes were evaluated in 8 week-old sex-matched littermates. For acute effects of PTH on bone gene expression, animals were treated with PTH (1-34, 300 μg/kg, subcutaneous administration) and then sacrificed 90 minutes later. For acute effects of YKL-05-093 on bone gene expression, animals were treated with the indicated doses of compound (dissolved in PBS+25 mM HCl) or solvent via intraperitoneal injections, and sacrificed 2 hours later. […]

SMILES: COc1ccc(N2C(=O)N(c3c(C)cccc3C)Cc3cnc(Nc4ccc(C5CCN(C)CC5)c(OC)c4)nc32)c(OC)c1 [YKL-05-093]
- RANKL expression [1]: most active in these experiments at reducing SOST and increasing RANKL
- SOST expression [1]: most active in these experiments at reducing SOST
- bone expression of genes co-regulated by PTH and YKL-05-093 in vitro ([2]; 20 μmol/kg): significant regulation of VDR, WNT4, NR4A2, NUAK1, PDGFA, and CD200 expression
- sclerostin protein levels by immunohistochemistry ([2]; 20 μmol/kg): reductions in sclerostin protein levels
- RANKL in osteocyte-enriched bone RNA ([2]; intraperitoneal): RANKL up-regulation
- SOST in osteocyte-enriched bone RNA ([2]; intraperitoneal): dose-dependent SOST suppression
